Test results taken from PubChem BioAssay (NCI).
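Where inhibition never reached the appropriate level, the endpoint shown equals the highest concentration tested. Otherwise, values were interpolated linearly from a five-concentration, 48-hour dose response in 96-well plates. TGI is the concentration that stops growth completely.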

Key:
Test in all cases: growth of human tumour cells (NCI), 48 h
[1] = tested on: NCI-H226 lung
[2] = tested on: IGROV1 ovarian
[3] = tested on: HT29 colon
[4] = tested on: HCT-116 colon
[5] = tested on: SNB-19 CNS
[6] = tested on: OVCAR-4 ovarian
[7] = tested on: SK-OV-3 ovarian
[8] = tested on: RPMI-8226 leukemia
[9] = tested on: SK-MEL-5 melanoma
[10] = tested on: HOP-62 NSCLC
[11] = tested on: SN12C renal
[12] = tested on: NCI-H23 lung
[13] = tested on: DU-145 prostate
[14] = tested on: MDA-MB-435
[15] = tested on: A549 NSCLC
[16] = tested on: RXF 393 renal
[17] = tested on: SK-MEL-2 melanoma
[18] = tested on: LOX IMVI melanoma
[19] = tested on: SR leukemia
[20] = tested on: SF-295 CNS
[21] = tested on: TK-10 renal
[22] = tested on: ACHN renal
[23] = tested on: OVCAR-8 ovarian
[24] = tested on: T-47D breast
[25] = tested on: MDA-N
[26] = tested on: EKVX NSCLC
[27] = tested on: HL-60(TB) leukemia
[28] = tested on: SF-539 CNS
[29] = tested on: KM12 colon
[30] = tested on: PC-3 prostate
[31] = tested on: U251 CNS
[32] = tested on: HOP-92 NSCLC
[33] = tested on: SK-MEL-28 melanoma
[34] = tested on: OVCAR-5 ovarian
[35] = tested on: HCT-15 colon
[36] = tested on: MDA-MB-231 breast
[37] = tested on: MOLT-4 leukemia
[38] = tested on: OVCAR-3 ovarian
[39] = tested on: SF-268 CNS
[40] = tested on: UO-31 renal
[41] = tested on: COLO 205 colon
[42] = tested on: NCI-H460 lung
[43] = tested on: MALME-3M melanoma
[44] = tested on: MCF7 breast
[45] = tested on: UACC-257 melanoma
[46] = tested on: UACC-62 melanoma
[47] = tested on: NCI/ADR-RES ovarian
[48] = tested on: M14 melanoma
[49] = tested on: 786-0 renal
[50] = tested on: HCC-2998 colon
[51] = tested on: K-562 leukemia
[52] = tested on: A498 renal
[53] = tested on: NCI-H522 lung
[54] = tested on: SW-620 colon
[55] = tested on: HS 578T breast
[56] = tested on: CCRF-CEM leukemia
[57] = tested on: BT-549 breast
[58] = tested on: CAKI-1 renal
[59] = tested on: SNB-75 CNS

O=C(O)CCC(=O)c1ccc2c(c1)C(C(=O)O)CC2 (stereo unspecified)
TGI [1]: > 100 µM | TGI [2]: > 100 µM | TGI [3]: > 100 µM | TGI [4]: 2.25 µM | TGI [5]: > 100 µM | TGI [6]: > 100 µM | TGI [7]: > 100 µM | TGI [8]: > 100 µM | TGI [9]: > 100 µM | TGI [10]: > 100 µM | TGI [11]: > 100 µM | TGI [12]: > 100 µM | TGI [13]: > 100 µM | TGI [14]: > 100 µM | TGI [15]: > 100 µM | TGI [16]: 23.1 µM | TGI [17]: > 100 µM | TGI [18]: > 100 µM | TGI [19]: > 100 µM | TGI [20]: > 100 µM | TGI [21]: > 100 µM | TGI [22]: > 100 µM | TGI [23]: > 100 µM | TGI [24]: > 100 µM | TGI [25]: > 100 µM | TGI [26]: > 100 µM | TGI [27]: > 100 µM | TGI [28]: > 100 µM | TGI [29]: > 100 µM | TGI [30]: > 100 µM | TGI [31]: > 100 µM | TGI [32]: > 100 µM | TGI [33]: > 100 µM | TGI [34]: > 100 µM | TGI [35]: > 100 µM | TGI [36]: > 100 µM | TGI [37]: > 100 µM | TGI [38]: > 100 µM | TGI [39]: > 100 µM | TGI [40]: > 100 µM | TGI [41]: > 100 µM | TGI [42]: > 100 µM | TGI [43]: > 100 µM | TGI [44]: > 100 µM | TGI [45]: > 100 µM | TGI [46]: > 100 µM | TGI [47]: > 100 µM | TGI [48]: > 100 µM | TGI [49]: > 100 µM | TGI [50]: > 100 µM | TGI [51]: > 100 µM | TGI [52]: > 100 µM | TGI [53]: > 100 µM | TGI [54]: > 100 µM | TGI [55]: > 100 µM

c1cc2c(s1)-c1sccc1C21OCCO1
TGI [1]: > 100 µM | TGI [3]: > 100 µM | TGI [4]: > 100 µM | TGI [5]: > 100 µM | TGI [6]: > 100 µM | TGI [8]: > 100 µM | TGI [9]: > 100 µM | TGI [10]: > 100 µM | TGI [11]: > 100 µM | TGI [12]: > 100 µM | TGI [13]: > 100 µM | TGI [14]: > 100 µM | TGI [15]: > 100 µM | TGI [17]: > 100 µM | TGI [18]: > 100 µM | TGI [19]: > 100 µM | TGI [20]: > 100 µM | TGI [21]: > 100 µM | TGI [22]: > 100 µM | TGI [23]: > 100 µM | TGI [24]: 80.9 µM | TGI [25]: > 100 µM | TGI [26]: > 100 µM | TGI [56]: > 100 µM | TGI [27]: > 100 µM | TGI [57]: > 100 µM | TGI [28]: > 100 µM | TGI [29]: > 100 µM | TGI [31]: > 100 µM | TGI [33]: > 100 µM | TGI [34]: > 100 µM | TGI [35]: > 100 µM | TGI [36]: > 100 µM | TGI [37]: > 100 µM | TGI [38]: > 100 µM | TGI [39]: > 100 µM | TGI [40]: > 100 µM | TGI [41]: > 100 µM | TGI [42]: > 100 µM | TGI [43]: > 100 µM | TGI [44]: > 100 µM | TGI [45]: > 100 µM | TGI [58]: > 100 µM | TGI [46]: > 100 µM | TGI [47]: > 100 µM | TGI [48]: > 100 µM | TGI [49]: > 100 µM | TGI [50]: > 100 µM | TGI [51]: > 100 µM | TGI [53]: > 100 µM

O=[N+]([O-])c1ccc2c(c1)N([O-])C1(CCCCC1)[N+]2=O
TGI [1]: 37.4 µM | TGI [2]: 36.9 µM | TGI [3]: 43.3 µM | TGI [4]: 33.3 µM | TGI [5]: > 100 µM | TGI [6]: 23.7 µM | TGI [7]: 44.2 µM | TGI [8]: 65 µM | TGI [9]: 28.9 µM | TGI [10]: 31 µM | TGI [11]: 35.1 µM | TGI [12]: 66.3 µM | TGI [13]: 33.9 µM | TGI [59]: 33.2 µM | TGI [14]: 30.9 µM | TGI [15]: 37 µM | TGI [16]: 32.4 µM | TGI [17]: 52.1 µM | TGI [18]: 42.2 µM | TGI [19]: 51.5 µM | TGI [20]: 34 µM | TGI [21]: 26.2 µM | TGI [22]: 33.8 µM | TGI [23]: 42.6 µM | TGI [24]: 64.7 µM | TGI [25]: 31.8 µM | TGI [26]: 29.6 µM | TGI [56]: > 100 µM | TGI [27]: > 100 µM | TGI [28]: 33.6 µM | TGI [29]: 42.4 µM | TGI [30]: 31.2 µM | TGI [31]: 32.3 µM | TGI [32]: 29.1 µM | TGI [33]: 34.5 µM | TGI [34]: 34.7 µM | TGI [35]: 39.4 µM | TGI [36]: 34.4 µM | TGI [37]: 51.9 µM | TGI [38]: 51 µM | TGI [39]: 69.4 µM | TGI [40]: 33.7 µM | TGI [41]: 27.1 µM | TGI [42]: 37 µM | TGI [43]: 28.7 µM | TGI [44]: 36.6 µM | TGI [45]: 29.4 µM | TGI [58]: 34.9 µM | TGI [46]: 37.1 µM | TGI [47]: 77.7 µM | TGI [48]: 30.5 µM | TGI [49]: 24.6 µM | TGI [50]: 32.8 µM | TGI [51]: > 100 µM | TGI [54]: 56 µM | TGI [55]: 47.9 µM
